The source of these data is patent US12465614B2, “Budesonide 21-phosphate salts and pharmaceutical compositions containing the same” (GENETIC S.P.A., priority 2020, dated 2025).

Assay [1] relates to mice with OVA-induced allergic asthma. Put plainly: Lung hyperreactivity/Penh function, intra-nasal Bud vs Bud-21 P (Experimental Groups III). The settings on record: for Penh maximal response (Emax) / area under the Penh-metacholine concentration curve (AUC): 4 weeks. It is filed as in vivo. The protocol: Male Balb/c SPF mice (25*2 g, 6-week-old) were purchased from the animal house facilities at the São Paulo School of Medicine (Federal University of São Paulo, Brazil). They were group-housed in a temperature-controlled room at 22° C. with a 12/12-hour light/dark cycle and allowed free access to food and water. The study is in agreement with the Ethical Principles for Animal Research established by the Brazilian College for Animal Experimentation (COBEA). According to the internal laboratory rules, euthanasia is performed if severe distress related to the test agents developed during the experiment. In Protocol 3, the test compounds budesonide (Bud; MW: 430.53 g/mol) and budesonide 21-phosphate free acid (Bud-21 P; […] The compounds were dissolved in 10% sterile saline+90% DMSO (Sigma Chemical Co., St. Louis, MO) at the correspondent concentrations at which the above mentioned doses per animal result from the intra-nasal (i.n.) administration of 10 μl/animal (5 μl/nostril) of each of the solutions. Mice were sensitized with two subcutaneous injections of 0.4 ml of OVA/Al(OH)3, with an interval of 7 days (Sham animals received the Al(OH)3 suspension in PBS with no OVA). Seven days after the second sensitization (i.e., 3rd week), the animals were nebulized twice a week with the 1% OVA solution (Sham and untreated OVA groups were nebulized with PBS) during 20 minutes for the next 2 weeks. Sixty minutes before the challenges (OVA nebulization) and daily during the next 4 weeks, mice were intra-nasally treated (10 μl/animal as 5 μl/nostril) with the respective compounds/vehicle. Airway responsiveness in conscious, spontaneously breathing animals was measured at the end of the 4th week (i.e., after 2 weeks of OVA challenges+treatments), 24 h after the last OVA/PBS challenge via whole body plethysmography (Buxco Europe Ltd, Winchester, UK), as previously described. Experiments were carried out in a quiet room by an investigator who was unaware of the nature of treatments. Aerosolized saline (50 μl/mouse during 60 s) and then the muscarinic agonist metacholine (MCh) at increasing concentrations (3.12, 6.25, 12.5 and 25.0 mg/ml in PBS) was nebulized through an inlet of the main chamber for 3 min each to induce bronchoconstriction and readings were taken and averaged for 6 min following each nebulization. After 20 min, the baseline values usually returned at the end of this period. Enhanced pause (Penh) was measured as an indicator of bronchoconstriction and consequent increase of airway resistances: Penh=[(expiration time/relaxation time)−1][…](maximum expiration flow/maximum inspiration flow)

Assay [2] relates to Bradykinin acetate (BK)-induced skin edema in mice. Put plainly: Cutaneous edema: BK-induced plasma extravasation, Evans blue method (Experimental Groups IV). It is filed as in vivo. As to the method: Male C57Bl/6 SPF mice (25±2 g, 6-week-old) were purchased from the animal house facilities at the São Paulo School of Medicine (Federal University of São Paulo, Brazil). They were group-housed in a temperature-controlled room at 22° C. with a 12/12-hour light/dark cycle, had free access to food and water and were allowed to acclimate to our local facility for one week before the start of the experimental procedures. The study agrees with the Ethical Principles for Animal Research established by the Brazilian College for Animal Experimentation (COBEA). According to the internal laboratory rules, euthanasia is performed if severe distress related to the test agents developed during the experiment. […] The vehicle for dissolution of the compounds was sterile saline solution (0.9% NaCl) containing 12.5% DMSO (Sigma Chemical Co., St. Louis, MO). The compound solutions were prepared at concentrations such that the administered dose per kg of body weight results from the intraperitoneal (i.p.) administration of 10 ml/kg of each of the solutions. Bradykinin acetate (BK; cat. B3259, Sigma Chemical Co., St. Louis, MO) and compound 48/80 (C48/80; cat. C2313, Sigma Chemical Co., St. […] Skin edema was assessed in mice according to the method previously described by Costa et al. (2006) and Yshii et al (2009). The mice were anesthetized with urethane (25% w/v, 10 ml/kg, i.p.), had their dorsal skin shaved, and thereafter i.p. treated with the vehicle/test compounds. Fifty-five minutes later, a volume of 100 μL of Evans blue dye solution (0.25% in sterile saline) was intravenously (i.v.) injected via the tail vein. Five minutes later, the BK and C48/80 were intradermally (i.d.) injected into the dorsal skin at a fixed volume of 50 μl using a randomized scheme. The same volume of Tyrode solution 50 μl was injected as a control. Thirty minutes later, a 1 ml blood sample was obtained via cardiac puncture and the mice were killed by urethane overdose followed by cervical dislocation. The blood samples were centrifuged at 6,000 g for 4 min to obtain the plasma. The dorsal skin was removed, and the injected sites were punched out using an 8 mm diameter cork borer. […] The dye was extracted from each piece of skin and plasma (100 μl) samples using formamide, and the absorbance of the resulting solutions was measured at 620 nm. The plasma extravasation due to each agent (expressed in μl/site) was calculated as the ratio between the absorbance of each respective skin piece, corrected by the blank value and plasma sample solutions, properly adjusted by the dilution factors. To homogenate data due to the variability of different group of animals (inter-group variations), edema data are expressed as the fold-change response relative to the mean Tyrode (control) response of each experiment.

Where [3] appears, read: all tested doses (3, 10 and 30 nmol/animal/day) i.n.
Where [4] appears, read: 0.70 μmol/kg i.p. (0.30 mg/kg Bud, 0.36 mg/kg Bud 21-P).
[5] abbreviates: 2.32 μmol/kg i.p. (1.0 mg/kg Bud, 1.2 mg/kg Bud 21-P), 60 min before i.d. BK, measured 30 min after.
Setting [6] is: highest dose 30 nmol/animal/day i.n.

With `CCCC1OC2CC3C4CCC5=CC(=O)C=CC5(C)C4C(O)CC3(C)C2(C(=O)COP(=O)(O)O)O1` (stereo not drawn) [B, Budesonide 21-phosphate], in assay [1] (setting [3]), the “Penh maximal response (Emax)” value was “significantly reduced” and the “area under the Penh-metacholine concentration curve (AUC)” value is given as “significantly reduced”. The BK-induced plasma extravasation result in assay [2] (setting [4]) is given as “significantly reduced the BK response”. Further, the BK-induced plasma extravasation result in assay [2] (setting [5]) is “abolished BK-induced response”.
In the case of `CCCC1OC2CC3C4CCC5=CC(=O)C=CC5(C)C4C(O)CC3(C)C2(C(=O)CO)O1` (stereo not drawn) [Bud, 11β,21-dihydroxy-16α,17α-(butylidenebis(oxy))pregna-1,4-diene-3.20-dione], the “beneficial effect on bronchoconstriction response to methacholine (Penh function)” value in assay [1] (3 and 10 nmol/animal/day i.n.) is given as “absent”. Also, in assay [1] (setting [6]), the “Penh maximal response (Emax)” value is on record as “significant reduction of this response just at the highest dose” and the “area under the Penh-metacholine concentration curve (AUC)” value was “significant reduction of this response just at the highest dose”. Besides, the BK-induced plasma extravasation result in assay [2] (setting [4]) was “ineffective”. The BK-induced plasma extravasation result in assay [2] (setting [5]) is “abolished BK-induced response”.
